# Source: patent publication US20250108068A1, “COMPOSITIONS AND METHODS FOR ALLEVIATING PULMONARY AILMENTS” (Color Ventures LLC, priority 2023, published 2025)
# Assays:
# [1] = system: test epithelia (MucilAir™); experiment: Cilia beating frequency (CBF) and % active area; format: cell-based, human; settings: positive control, 100 μM in basolateral compartment for 2 hours
# Protocol: In the studies described herein, test epithelia (MucilAir™, Epithelix) are reconstituted from cells isolated from a healthy bronchial donor. The formulation is exposed apically to mimic deposition on the nasal mucosa via inhalation. In the studies described herein, positive controls depend on experiment. For example: Isoproterenol 100 μM in culture medium; CBF activator applied in basolateral compartment ([…]) for 2 hours (CBF positive control); Isoproterenol 100 μM in culture medium (MCC positive control); […] Timeline of Epithelia Experiments. At time point 0, epithelia are treated with the test formulation or control using an apical mode of administration. Test formulations or control were exposed at a quantity of 10 μL, at the concentrations in Table 1. […] In some embodiments, CBF is analyzed with Sisson-Ammons Video Analysis (SAVA) software (Sisson et al., Journal of microscopy 211.2 (2003): 103-111) using an inverted phase contrast microscope (Zeiss®, Germany). In some embodiments, CBF is analyzed with Epithelix software (Cilia-X). […] In some embodiments, two videos are recorded per well at 120 frames per second with a total of 512 frames per video. In other embodiments, the CBF is expressed as Hz 256, wherein movies are captured at a high frequency rate of 125 frames per second. […]
# [2] = system: sheep; experiment: Tracheal mucus velocity (TMV) in sheep after CFTR inhibition; format: in vivo; settings: nebulization, over a period of 2-3 hours
# Protocol: Modeling mucociliary clearance. To model mucociliary clearance, sheep 40-50 kg were intubated and the velocity of mucociliary clearance in the trachea was measured by insufflation of radio-opaque Teflon discs were placed into the sheep trachea so that they become embedded in the mucus in the trachea. The movement of multiple discs over several minutes was determined using fluoroscopy and the tracheal mucus velocity (TMV) is calculated as the average that the discs travel per minute. After establishing a baseline TMV, a potent long-lasting inhibitor of CFTR (INH-172) was delivered by nebulization with TMV measurements performed every hour, and over a period of 2-3 hours the TMV declines by approximately 50% in a manner like CF where the inability to secrete Cl^− and NaHCO3 results in dehydration of the airways and slowing of mucociliary clearance.
# Once the stable inhibition of TMV has been established, typically at hour 4, the test compound was delivered by nebulization and TMV measured for an additional 8 hours. Inhibitors of ENaC like amiloride (as described in Scott, David W., et al., American Journal of Respiratory and Critical Care Medicine 196.6 (2017): 734-744, incorporated herein in its entirety) and P1037/VX371 show rescue of TMV that is of limited duration with an effect that only lasts for 2-3 hours, due to systemic clearance.
SMILES,Cilia beating frequency [1],Decline of TMV from baseline [2]
"CC(C)NCC(O)c1ccc(O)c(O)c1 (centres unmarked) [positive control of cilia beating, Isoproterenol]",highest cilia beating frequency,
O=C(O)c1ccc(C=C2SC(=S)N(c3cccc(C(F)(F)F)c3)C2=O)cc1 [INH-172],,approximately 50%
